Measurements: patent publication US20250066386A1, “INHIBITORS OF KRAS” (BIOMEA FUSION, INC., priority 2022, published 2025)
Read-outs that look alike come from different tables or passages of the source.

Test system: human KRAS G12C mutated cell line MIA PaCa-2
Test: KRas G12C in vitro inhibitory activity: cell proliferation, CellTiter-Glo
Assay type: cell-based
Text: The present example evaluates the ability of compounds provided herein to inhibit proliferation of KRAS mutant cells.
The inhibitory effect on cell proliferation was investigated in the human KRAS G12C mutated cell line MIA PaCa-2 (Yunis et al., 1977, Int. J. Cancer 19(1):128-135; ATCC catalog no. CRL-1420). Cells were maintained in RPMI-1640 medium (ThermoFisher catalog no. 61870036) supplemented with 10% of Heat Inactivated FBS (ThermoFisher catalog no. A31605) and 1% Pen-Strep (ThermoFisher catalog no. 10378016) and cultured at 37° C. in a humidified incubator with 5% CO2. Cells were grown by adhering to culture flasks, and maintained at 70%-80% confluency.
ATP is present in all metabolically active cells and is considered as a marker for viable cells. The number of metabolically active live cells in culture was determined using the CellTiter-Glo kit (Promega catalog no. G7572), an ATP monitoring system based on the production of luminescence by the reaction of ATP with added UltraGlo® recombinant luciferase (Kawano et al., 2016, PLOS One, 8; 11(7):e0158888), according to the supplier's experimental recommendations. The cell proliferation assay was based on a 96 well plate format.
Test compounds were dissolved at 10 mM in DMSO (Sigma catalog no. D8418; purity >99.9%) and stored at −20° C. Eight concentrations of test compound were assessed in duplicate in an individual test occasion in parallel in the selected cell lines. MRTX-849 and AMG-510 were used as reference compounds and tested in duplicate at eight concentrations. 100% of proliferation is represented by the untreated cells (0.2% DMSO).
On the day of the experiment (TO), cells were detached with TrypLE (ThermoFisher catalog no. 12604054), quantified using the cell viability analyser NucleoCounter (Chemometec NC-200) and resuspended in fresh medium at a cell density of about 5000 cells per 200 μL medium. 200 μL of cell suspension were added to each well of a 96 well plate.
Two hours after seeding cells, compounds were added at desired concentrations using a D300e compound dispenser (Life Sciences Tecan D300) with shaking after each compound addition. Assay plates were incubated at 37° C. in a humidified incubator with 5% CO2.
(§1) To measure 3 day inhibition of cell proliferation on day 3 (T3), assay plates were equilibrated to room temperature for approximately 15 min, and the Promega CellTiterGlo® reagent was added at 40 μL/well. Contents were mixed for 5 min on an orbital shaker to induce cell lysis, and then incubated at room temperature for an additional 10 min in the dark to stabilize the luminescent signal. Luminescence was read using a GloMax GM300 plate reader (Promega) using the luminescence for 96 well plate standard protocol.
as §1, with “measure 7” for “measure 3”, “(T3), 150 μL of growth media was removed from each well of the assay plates and replaced with 150 uL fresh growth media, and fresh compounds added using a D300e compound dispenser (Life Sciences Tecan D300) at desired concentrations with shaking between each compound addition. Assay plates were incubated at 37° C. in a humidified incubator with 5% CO2. On day 7 (T7)” for “(T3),”
Data was expressed as % of inhibition compared to the 0.2% DMSO negative no drug control, and is calculated as follows: % inhibition=100−[(RLU sample)×100/(RLU average controls*)], where * indicates the average for 0.2% DMSO.
Results were analyzed by GraphPad (Prism) and IC50 values were calculated by non-linear regression using four parameter-logistic equation. […]

[1] = Homo sapiens, MIA PaCa-2, 72 h, 3 day inhibition of cell proliferation, CellTiter-Glo luminescence, read-out: MIA PaCa-2 Day 3 IC50
[2] = Homo sapiens, MIA PaCa-2, 7 day inhibition of cell proliferation, medium and compound renewed on day 3, CellTiter-Glo luminescence, read-out: MIA PaCa-2 Day 7 IC50

| SMILES | IC50 (7 day inhibition of cell proliferation, medium and compound renewed on day 3, CellTiter-Glo luminescence, read-out: MIA PaCa-2 Day 7 IC50) [nM] | IC50 [1] [nM] | IC50 [2] [nM] |
| --- | --- | --- | --- |
| CCn1c(-c2cccnc2[C@H](C)OC)c2c3cc(ccc31)-c1csc(n1)C[C@H](NC(=O)[C@H](C(C)C)N(C)C(=O)[C@H]1CCN(CC#CC(=O)N(C)C)C1)C(=O)N1CCC[C@H](N1)C(=O)OCC(C)(C)C2 (atropisomer, axis not shown) [Compound 113, (3S)-1-(4-(dimethylamino)-4-oxobut-2-yn-1-yl)-N-((2S)-1-(((6^3S,4S,Z)-1^1-ethyl-1^2-(2-((S)-1-methoxyethyl)pyridin-3-yl)-10,10-dimethyl-5,7-dioxo-6^1,6^2,6^3,6^4,6^5,6^6-hexahydro-1^1H-8-oxa-2(4,2)-thiazola-1(5,3)-indola-6(1,3)-pyridazinacycloundecaphane-4-yl)amino)-3-methyl-1-oxobutan-2-yl)-N-methylpyrrolidine-3-carboxamide] |  | < 1 |  |
| CCn1c(-c2cccnc2[C@H](C)OC)c2c3cc(ccc31)-c1csc(n1)C[C@H](NC(=O)[C@H](C(C)C)N(C)C(=O)[C@H]1CCN(C(C)C#CC(=O)N(C)C)C1)C(=O)N1CCC[C@H](N1)C(=O)OCC(C)(C)C2 (stereo partly drawn) [Compound 114, (3S)-1-(5-(dimethylamino)-5-oxopent-3-yn-2-yl)-N-((2S)-1-(((63S,4S,Z)-1^1-ethyl-1^2-(2-((S)-1-methoxyethyl)pyridin-3-yl)-10,10-dimethyl-5,7-dioxo-6^1,6^2,6^3,6^4,6^5,6^6-hexahydro-11H-8-oxa-2(4,2)-thiazola-1(5,3)-indola-6(1,3)-pyridazinacycloundecaphane-4-yl)amino)-3-methyl-1-oxobutan-2-yl)-N-methylpyrrolidine-3-carboxamide] |  | < 1 |  |
| CCn1c(-c2cccnc2[C@H](C)OC)c2c3cc(ccc31)-c1cccc(c1)C[C@H](NC(=O)[C@H](C(C)C)N(C)C(=O)[C@H]1CCN(C/C=C/C(=O)N(C)C)C1)C(=O)N1CCC[C@H](N1)C(=O)OCC(C)(C)C2 (atropisomer, axis not shown) [Compound 101, (3S)-1-((E)-4-(dimethylamino)-4-oxobut-2-en-1-yl)-N-((2S)-1-(((6^3S,4S)-1^1-ethyl-1^2-(2-((S)-1-methoxyethyl)pyridin-3-yl)-10,10-dimethyl-5,7-dioxo-6^1,6^2,6^3,6^4,6^5,6^6-hexahydro-1^1H-8-oxa-1(5,3)-indola-6(1,3)-pyridazina-2(1,3)-benzenacycloundecaphane-4-yl)amino)-3-methyl-1-oxobutan-2-yl)-N-methylpyrrolidine-3-carboxamide] |  | 10 to 100 | 10 to 100 |
| CCn1c(-c2cccnc2[C@H](C)OC)c2c3cc(ccc31)-c1csc(n1)C[C@H](NC(=O)[C@H](C(C)C)N(C)C(=O)[C@H]1CCN(CC#CC(=O)N3CCC3)C1)C(=O)N1CCC[C@H](N1)C(=O)OCC(C)(C)C2 (atropisomer, axis not shown) [Compound 116, (3S)-1-(4-(azetidin-1-yl)-4-oxobut-2-yn-1-yl)-N-((2S)-1-(((6^3S,4S,Z)-1^1-ethyl-1^2-(2-((S)-1-methoxyethyl)pyridin-3-yl)-10,10-dimethyl-5,7-dioxo-6^1,6^2,6^3,6^4,6^5,6^6-hexahydro-1^1H-8-oxa-2(4,2)-thiazola-1(5,3)-indola-6(1,3)-pyridazinacycloundecaphane-4-yl)amino)-3-methyl-1-oxobutan-2-yl)-N-methylpyrrolidine-3-carboxamide] |  | > 100 | 1 to 10 |
| CCn1c(-c2cccnc2[C@H](C)OC)c2c3cc(ccc31)-c1cccc(c1)C[C@H](NC(=O)[C@H](C(C)C)N(C)C(=O)[C@H]1CCN(C(=O)C#CCN3CCOCC3)C1)C(=O)N1CCC[C@@H](CC(=O)OC(C)(C)C2)C1 [Compound 107] |  |  | > 100 |
| CCn1c(-c2cccnc2[C@H](C)OC)c2c3cc(ccc31)-c1cccc(c1)C[C@H](NC(=O)[C@H](C(C)C)N(C)C(=O)[C@H]1CCN(C/C=C/C(=O)N3CC(F)C3)C1)C(=O)N1CCC[C@H](N1)C(=O)OCC(C)(C)C2 (atropisomer, axis not shown) [Compound 110, (3S)—N-((2S)-1-(((6^3S,4S)-1^1-ethyl-1^2-(2-((S)-1-methoxyethyl)pyridin-3-yl)-10,10-dimethyl-5,7-dioxo-6^1,6^2,6^3,6^4,6^5,6^6-hexahydro-1^1H-8-oxa-1(5,3)-indola-6(1,3)-pyridazina-2(1,3)-benzenacycloundecaphane-4-yl)amino)-3-methyl-1-oxobutan-2-yl)-1-((E)-4-(3-fluoroazetidin-1-yl)-4-oxobut-2-en-1-yl)-N-methylpyrrolidine-3-carboxamide] |  | < 1 |  |

Now from value to compound:

| IC50 (7 day inhibition of cell proliferation, medium and compound renewed on day 3, CellTiter-Glo luminescence, read-out: MIA PaCa-2 Day 7 IC50) [nM] | IC50 [1] [nM] | IC50 [2] [nM] | SMILES |
| --- | --- | --- | --- |
| > 100 | > 100 |  | CCn1c(-c2cccnc2[C@H](C)OC)c2c3cc(ccc31)-c1cccc(c1)C[C@H](NC(=O)[C@H](C(C)C)N(C)C(=O)[C@H]1CCN(C(=O)C#CCN3CCOCC3)C1)C(=O)N1CCC[C@H](C1)C(=O)OCC(C)(C)C2 (atropisomer, axis not shown) [Compound 2, (3S)—N-((2S)-1-(((6^3R,4S)-1^1-ethyl-1^2-(2-((S)-1-methoxyethyl)pyridin-3-yl)-10,10-dimethyl-5,7-dioxo-1^1H-8-oxa-1(5,3)-indola-6(1,3)-piperidina-2(1,3)-benzenacycloundecaphane-4-yl)amino)-3-methyl-1-oxobutan-2-yl)-N-methyl-1-(4-morpholinobut-2-ynoyl)pyrrolidine-3-carboxamide] |
|  | > 100 |  | CCn1c(-c2cccnc2[C@H](C)OC)c2c3cc(ccc31)-c1cccc(c1)C[C@H](NC(=O)[C@H](C(C)C)N(C)C(=O)[C@H]1CCN(C(=O)C#CCN3CCOCC3)C1)C(=O)N1CCC[C@@H](CC(=O)OC(C)(C)C2)C1 [Compound 106, (3S)—N-((2S)-1-(((6^3S,4S)-1^1-ethyl-1^2-(2-((S)-1-methoxyethyl)pyridin-3-yl)-10,10-dimethyl-5,8-dioxo-1^1H-9-oxa-1(5,3)-indola-6(1,3)-piperidina-2(1,3)-benzenacycloundecaphane-4-yl)amino)-3-methyl-1-oxobutan-2-yl)-N-methyl-1-(4-morpholinobut-2-ynoyl)pyrrolidine-3-carboxamide] |
|  | > 100 |  | C=CC(=O)N1CC[C@H](C(=O)N(C)[C@H](C(=O)N[C@H]2Cc3cccc(c3)-c3ccc4c(c3)c(c(-c3cccnc3[C@H](C)OC)n4CC)CC(C)(C)n3cc(nn3)[C@@H]3CCCN(N3)C2=O)C(C)C)C1 [Compound 104, (3S)-1-acryloyl-N-((2S)-1-(((6^3S,8S,Z)-21-ethyl-2^2-(2-((S)-1-methoxyethyl)pyridin-3-yl)-4,4-dimethyl-7-oxo-6^1,6^2,6^3,6^4,6^5,6^6-hexahydro-2^1H,5^1H-2(5,3)-indola-6(3,1)-pyridazina-5(1,4)-triazola-1(1,3)-benzenacyclononaphane-8-yl)amino)-3-methyl-1-oxobutan-2-yl)-N-methylpyrrolidine-3-carboxamide] |
|  | > 100 |  | CCn1c(-c2cccnc2[C@H](C)OC)c2c3cc(ccc31)-c1cccc(c1)C[C@H](NC(=O)[C@H](C(C)C)N(C)C(=O)[C@H]1CCN(C(=O)C#CCN(C)C)C1)C(=O)N1CC[C@@H](C1)C(=O)OCC(C)(C)C2 (atropisomer, axis not shown) [Compound 102, (3S)-1-(4-(dimethylamino)but-2-ynoyl)-N-((2S)-1-(((6^3S,4S)-1^1-ethyl-1^2-(2-((S)-1-methoxyethyl)pyridin-3-yl)-10,10-dimethyl-5,7-dioxo-1^1H-8-oxa-1(5,3)-indola-6(1,3)-pyrrolidina-2(1,3)-benzenacycloundecaphane-4-yl)amino)-3-methyl-1-oxobutan-2-yl)-N-methylpyrrolidine-3-carboxamide] |
